From PubChem BioAssay (NCI) come the findings set out here.

Structures are written as SMILES.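 Five compound concentrations were applied to cells in 96-well plates for 48 hours; endpoints were derived by simple linear interpolation of the resulting dose-response curve. At the GI50, growth is halved. At the TGI there is no net growth.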

Some test systems named below: EKVX NSCLC; HCT-116 colon; LOX IMVI melanoma; NCI-H226 lung; NCI-H460 lung; NCI/ADR-RES ovarian; SK-MEL-5 melanoma; SK-OV-3 ovarian; SR leukemia; T-47D breast.
Assay in all cases: inhibition of tumour cell growth, NCI panel, 48 h

As for `CC1=CC[C@@H]2C(C)(C)C(=O)CC[C@@]2(C)[C@@H]1COc1ccc2ccc(=O)oc2c1`, the GI50 in the test on EKVX NSCLC is 13.6 µM; in the test with HCT-116 colon it was 16.4 µM; in the test with LOX IMVI melanoma it was 17.6 µM; with NCI-H226 lung it was 8.7 µM; in the test on NCI-H460 lung, 21.8 µM; with NCI/ADR-RES ovarian, 4.06 µM. In addition, the GI50 in the test with SK-MEL-5 melanoma was 4 µM; in the test with SK-OV-3 ovarian, 31.9 µM; in the test on SR leukemia it was 13.2 µM; in the test with T-47D breast, 2.69 µM. Moreover, the TGI in the test on EKVX NSCLC was more than 100 µM; in the test with HCT-116 colon, more than 100 µM; with LOX IMVI melanoma, 48.6 µM; in the test on NCI-H226 lung, 33.7 µM; with NCI-H460 lung, 79.7 µM; with NCI/ADR-RES ovarian, 19.9 µM. Also, the TGI is 14.2 µM in the test on SK-MEL-5 melanoma, more than 100 µM with SK-OV-3 ovarian, 68.5 µM in the test on SR leukemia and 11.1 µM with T-47D breast.

Consider `Cc1csc(/C=N/NC(=O)c2nnn(-c3ccnc4c(C(F)(F)F)cccc34)c2C)c1`, for which the GI50 in the test on EKVX NSCLC is more than 100 µM; in the test on HCT-116 colon it was 36 µM; in the test on LOX IMVI melanoma, 72.2 µM; in the test on NCI-H226 lung, 79 µM; in the test on NCI-H460 lung, more than 100 µM; with NCI/ADR-RES ovarian, more than 100 µM. For the same compound, the GI50 was 27.2 µM in the test with SK-MEL-5 melanoma, 28.7 µM in the test with SK-OV-3 ovarian, 19.3 µM with SR leukemia and 29.5 µM with T-47D breast. In addition, the TGI with EKVX NSCLC, in the test on HCT-116 colon, in the test on LOX IMVI melanoma, in the test on NCI-H226 lung, in the test on NCI-H460 lung and in the test on NCI/ADR-RES ovarian was more than 100 µM each time. Also, the TGI with SK-MEL-5 melanoma, in the test with SK-OV-3 ovarian, in the test with SR leukemia and with T-47D breast was more than 100 µM each time.

In the case of `COc1cc2ccccc2c2cc([N+](=O)[O-])oc12`, the TGI with EKVX NSCLC was found to be 14.1 µM; in the test on HCT-116 colon, 10.3 µM; in the test on LOX IMVI melanoma, 3.93 µM; with NCI-H226 lung, 3.04 µM; with NCI-H460 lung, 1.06 µM; with NCI/ADR-RES ovarian, 32.1 µM. Also, the TGI is 0.293 µM in the test on SK-MEL-5 melanoma, more than 71.7 µM in the test on SK-OV-3 ovarian, 1.92 µM with SR leukemia and more than 45.6 µM in the test on T-47D breast.

Take `O=C(/C=C/c1ccccc1)c1c[nH]c2ccccc2c1=O`: the GI50 with EKVX NSCLC is 3.95 µM; with HCT-116 colon, 3.11 µM; in the test with LOX IMVI melanoma, 2.88 µM; in the test on NCI-H226 lung, 4.81 µM; in the test with NCI-H460 lung, 2.06 µM; with NCI/ADR-RES ovarian, 2.93 µM. Besides, the GI50 with SK-MEL-5 melanoma is 4.8 µM; with SK-OV-3 ovarian, 2.53 µM; in the test with SR leukemia, 2.62 µM; in the test with T-47D breast, 3.05 µM. For the same compound, the TGI in the test with EKVX NSCLC was found to be 20.1 µM; in the test on HCT-116 colon it was 12.1 µM; in the test with LOX IMVI melanoma, 12 µM; with NCI-H226 lung, 17.3 µM; with NCI-H460 lung, 5.09 µM; in the test with NCI/ADR-RES ovarian, 13 µM. Moreover, the TGI with SK-MEL-5 melanoma was 17 µM; with SK-OV-3 ovarian, 6.82 µM; in the test on SR leukemia, more than 100 µM; in the test on T-47D breast it was 17.1 µM.

Turning to `COc1cc([N+](=O)[O-])c(S(=O)(=O)O)cc1NS(=O)(=O)c1ccc(C)cc1`, the TGI with EKVX NSCLC, with HCT-116 colon, with LOX IMVI melanoma, in the test with NCI-H226 lung, in the test on NCI-H460 lung and in the test with NCI/ADR-RES ovarian was more than 100 µM throughout. The TGI with SK-MEL-5 melanoma, with SK-OV-3 ovarian, in the test on SR leukemia and in the test with T-47D breast was more than 100 µM each time.

`COc1ccc2c(c1)[C@]1(C[C@H]1c1ccc3c(/C=C/c4ccc(CN5C[C@@H](C)O[C@@H](C)C5)cc4)n[nH]c3c1)C(=O)N2`: the GI50 in the test with EKVX NSCLC was 6.01 µM; with HCT-116 colon, 1.77 µM; in the test with LOX IMVI melanoma it was 1.96 µM; in the test on NCI-H226 lung, 14.5 µM; with NCI-H460 lung, 1.6 µM; with NCI/ADR-RES ovarian, 2.71 µM. The GI50 in the test with SK-MEL-5 melanoma is 1.77 µM; in the test on SK-OV-3 ovarian, 15.1 µM; in the test with SR leukemia, 0.269 µM; in the test with T-47D breast it was 2.68 µM. Moreover, the TGI with EKVX NSCLC was more than 100 µM; in the test on HCT-116 colon, 12.1 µM; in the test with LOX IMVI melanoma it was 10.4 µM; with NCI-H226 lung, more than 100 µM; in the test with NCI-H460 lung, 12.1 µM; in the test with NCI/ADR-RES ovarian it was 24.9 µM. Moreover, the TGI is 3.87 µM in the test with SK-MEL-5 melanoma, more than 100 µM in the test with SK-OV-3 ovarian, 6.61 µM in the test on SR leukemia and more than 86.9 µM in the test with T-47D breast.

Consider `NC1=NC(c2ccc(Cl)cc2)N(c2ccc(S(=O)(=O)Nc3ncccn3)cc2)C(N)=N1` (stereo not given), for which the TGI in the test on EKVX NSCLC, in the test on HCT-116 colon, in the test on LOX IMVI melanoma, with NCI-H226 lung, in the test with NCI-H460 lung and in the test on NCI/ADR-RES ovarian was more than 100 µM throughout. Further, the TGI in the test on SK-MEL-5 melanoma, with SK-OV-3 ovarian, with SR leukemia and with T-47D breast was more than 100 µM in each case.

`CCNC(C)(C)C(SS)c1ccc(Br)cc1` (stereo not given): the TGI with EKVX NSCLC is more than 100 µM; with HCT-116 colon it was more than 100 µM; in the test on LOX IMVI melanoma it was 60.1 µM; with NCI-H226 lung, more than 100 µM; with NCI-H460 lung it was more than 100 µM; with NCI/ADR-RES ovarian, more than 100 µM. Further, the TGI in the test on SK-MEL-5 melanoma is more than 100 µM; in the test with SK-OV-3 ovarian, more than 100 µM; in the test on SR leukemia, more than 100 µM; in the test with T-47D breast, 93.6 µM.

`CN(Cc1cnc(N)nc1N)c1ccc(C(=O)O)cc1`: the GI50 with EKVX NSCLC, in the test with HCT-116 colon, in the test with LOX IMVI melanoma, with NCI-H226 lung, in the test with NCI-H460 lung and with NCI/ADR-RES ovarian was more than 100 µM in each case. For the same compound, the GI50 with SK-MEL-5 melanoma, in the test on SK-OV-3 ovarian, with SR leukemia and in the test on T-47D breast was more than 100 µM in each case. Moreover, the TGI in the test on EKVX NSCLC, in the test with HCT-116 colon, in the test with LOX IMVI melanoma, in the test with NCI-H226 lung, in the test with NCI-H460 lung and in the test with NCI/ADR-RES ovarian was more than 100 µM in each case. Further, the TGI with SK-MEL-5 melanoma, with SK-OV-3 ovarian, in the test on SR leukemia and in the test on T-47D breast was more than 100 µM each time.
